“And” between values parts separate entries of the source, which are not always exact repeats. Equal entries are not always repeated.
Test system: PANC-1 complex spheroid growth, percent test/control
Assay: Anticancer human tumor PANC-1 cell line growth inhibition [Asc];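 also: spheroids exposed to agents for 7 days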;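 as to viability, T/C: percent viability relative to DMSO vehicle wells taken as 100%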
Conditions: for viability, T/C: stronger effect = lower value
Method in brief: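 Complex spheroids combining tumor cells with HUVEC endothelial cells and human MSCs, at 37 degrees C, 5% CO2; agents tested alone or combined, half-log dilutions from at or near clinical Cmax, or 10 microM if Cmax unknown.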

For `O=C(c1ccc(F)c(F)c1Nc1ccc(I)cc1F)N1CC(O)([C@@H]2CCCCN2)C1`, the viability, T/C (compound 0.00316 µM) was 94.2% and 92.8% and 95.9%, the viability, T/C (compound 0.01 µM) was 90.2% and 82.4% and 91.8% and the viability, T/C (compound 0.0316 µM) was 87.9% and 89.5% and 101%. The viability, T/C (compound 0.1 µM) was 85.8% and 91.7% and 97.6%, the viability, T/C (compound 0.316 µM) was 87.8% and 89.1% and 96.5% and the viability, T/C (compound 1 µM) was 92.6% and 92.3% and 102%. The IC50 (curve of compound) was over 1 µM.

For `NC1CCC(NC2CC2c2ccccc2)CC1` (centres undefined) + Cc1c(S(C)(=O)=O)c(-c2cc(F)cc(N3CCN(c4ccc(NS(=O)(=O)c5ccc(NC(CCN6CCC(C(=O)OCCCP(=O)(O)O)CC6)CSc6ccccc6)c(S(=O)(=O)C(F)(F)F)c5)cc4)CC3)c2)c(-c2ccc(Cl)cc2)n1C(C)C, the IC50 (curve of first compound, second compound 0.0316 µM) was over 0.1 µM, the IC50 (curve of first compound, second compound 0.1 µM) was over 0.1 µM and the IC50 (curve of first compound, second compound 0.316 µM) was over 0.1 µM. It also gave an IC50 (curve of first compound, second compound 1 µM) of over 0.1 µM, an IC50 (curve of first compound, second compound 3.16 µM) of over 0.1 µM and an IC50 (curve of first compound, second compound 10 µM) of over 0.1 µM. For the same compound, the viability, T/C (second compound 0.0316 µM, first compound 0.000316 µM) was 109%, the viability, T/C (second compound 0.0316 µM, first compound 0.001 µM) was 101% and the viability, T/C (second compound 0.0316 µM, first compound 0.00316 µM) was 98.1%. For the same compound, the viability, T/C (second compound 0.0316 µM, first compound 0.01 µM) was 91.4%, the viability, T/C (second compound 0.0316 µM, first compound 0.0316 µM) was 95.1% and the viability, T/C (second compound 0.0316 µM, first compound 0.1 µM) was 100%. The viability, T/C (second compound 0.1 µM, first compound 0.000316 µM) was 109%, the viability, T/C (second compound 0.1 µM, first compound 0.001 µM) was 98.3% and the viability, T/C (second compound 0.1 µM, first compound 0.00316 µM) was 101%. For the same compound, the viability, T/C (second compound 0.1 µM, first compound 0.01 µM) was 107%, the viability, T/C (second compound 0.1 µM, first compound 0.0316 µM) was 98% and the viability, T/C (second compound 0.1 µM, first compound 0.1 µM) was 115%. For the same compound, the viability, T/C (second compound 0.316 µM, first compound 0.000316 µM) was 108%, the viability, T/C (second compound 0.316 µM, first compound 0.001 µM) was 97.1% and the viability, T/C (second compound 0.316 µM, first compound 0.00316 µM) was 97.5%. For the same compound, the viability, T/C (second compound 0.316 µM, first compound 0.01 µM) was 98.5%, the viability, T/C (second compound 0.316 µM, first compound 0.0316 µM) was 110% and the viability, T/C (second compound 0.316 µM, first compound 0.1 µM) was 105%. For the same compound, the viability, T/C (second compound 1 µM, first compound 0.000316 µM) was 104%, the viability, T/C (second compound 1 µM, first compound 0.001 µM) was 109% and the viability, T/C (second compound 1 µM, first compound 0.00316 µM) was 121%. The viability, T/C (second compound 1 µM, first compound 0.01 µM) was 92%, the viability, T/C (second compound 1 µM, first compound 0.0316 µM) was 112% and the viability, T/C (second compound 1 µM, first compound 0.1 µM) was 107%. It also gave a viability, T/C (second compound 3.16 µM, first compound 0.000316 µM) of 114%, a viability, T/C (second compound 3.16 µM, first compound 0.001 µM) of 110% and a viability, T/C (second compound 3.16 µM, first compound 0.00316 µM) of 102%. The viability, T/C (second compound 3.16 µM, first compound 0.01 µM) was 108%, the viability, T/C (second compound 3.16 µM, first compound 0.0316 µM) was 109% and the viability, T/C (second compound 3.16 µM, first compound 0.1 µM) was 110%. The viability, T/C (second compound 10 µM, first compound 0.000316 µM) was 168%, the viability, T/C (second compound 10 µM, first compound 0.001 µM) was 206% and the viability, T/C (second compound 10 µM, first compound 0.00316 µM) was 176%. The viability, T/C (second compound 10 µM, first compound 0.01 µM) was 177%, the viability, T/C (second compound 10 µM, first compound 0.0316 µM) was 174% and the viability, T/C (second compound 10 µM, first compound 0.1 µM) was 168%.

In the case of `CNC(C)C(=O)NC1CN(S(=O)(=O)c2cccc(S(=O)(=O)N3CCC4CCC(C(=O)NC(c5ccccc5)c5ccccc5)N4C(=O)C(NC(=O)C(C)NC)C3)c2)CCC2CCC(C(=O)NC(c3ccccc3)c3ccccc3)N2C1=O` (centres undefined), the viability, T/C (compound 0.00316 µM) is reported as 107% [middle of 9 runs], the viability, T/C (compound 0.01 µM) is reported as 102% [middle of 9 runs] and the viability, T/C (compound 0.0316 µM) is reported as 98.1% [middle of 9 runs]. For the same compound, the viability, T/C (compound 0.1 µM) was 96.1% [middle of 9 runs], the viability, T/C (compound 0.316 µM) was 93.5% [middle of 9 runs] and the viability, T/C (compound 1 µM) was 89.2% [middle of 9 runs]. It also gave an IC50 (compound alone, run of 11/15/2022) of over 1 µM and an IC50 (curve of compound) of over 1 µM.

`C=CC(=O)N1CCN(c2nc(=O)n(-c3c(C)ccnc3C(C)C)c3nc(-c4c(O)cccc4F)c(F)cc23)C(C)C1` (centres undefined) + CCN1C(C(=O)NC23CCC(C(=O)O)(CC2)CC3)C(c2cccc(Cl)c2F)C2(C(=O)Nc3cc(Cl)ccc32)C12CCCCC2 showed an IC50 (curve of first compound, second compound 0.00949 µM) of over 10 µM, an IC50 (curve of first compound, second compound 0.03 µM) of over 10 µM and an IC50 (curve of first compound, second compound 0.0949 µM) of over 10 µM. For the same compound, the IC50 (curve of first compound, second compound 0.3 µM) was over 10 µM, the IC50 (curve of first compound, second compound 0.949 µM) was over 10 µM and the IC50 (curve of first compound, second compound 3 µM) was over 10 µM. The viability, T/C (second compound 0.00949 µM, first compound 0.0316 µM) was 98.1%, the viability, T/C (second compound 0.00949 µM, first compound 0.1 µM) was 96.8% and the viability, T/C (second compound 0.00949 µM, first compound 0.316 µM) was 86%. The viability, T/C (second compound 0.00949 µM, first compound 1 µM) was 98.8%, the viability, T/C (second compound 0.00949 µM, first compound 3.16 µM) was 90.4% and the viability, T/C (second compound 0.00949 µM, first compound 10 µM) was 96%. For the same compound, the viability, T/C (second compound 0.03 µM, first compound 0.0316 µM) was 101%, the viability, T/C (second compound 0.03 µM, first compound 0.1 µM) was 92.5% and the viability, T/C (second compound 0.03 µM, first compound 0.316 µM) was 100%. It also gave a viability, T/C (second compound 0.03 µM, first compound 1 µM) of 103%, a viability, T/C (second compound 0.03 µM, first compound 3.16 µM) of 97.8% and a viability, T/C (second compound 0.03 µM, first compound 10 µM) of 77.5%. For the same compound, the viability, T/C (second compound 0.0949 µM, first compound 0.0316 µM) was 111%, the viability, T/C (second compound 0.0949 µM, first compound 0.1 µM) was 101% and the viability, T/C (second compound 0.0949 µM, first compound 0.316 µM) was 97.5%. For the same compound, the viability, T/C (second compound 0.0949 µM, first compound 1 µM) was 94%, the viability, T/C (second compound 0.0949 µM, first compound 3.16 µM) was 95.6% and the viability, T/C (second compound 0.0949 µM, first compound 10 µM) was 91.2%. It also gave a viability, T/C (second compound 0.3 µM, first compound 0.0316 µM) of 109%, a viability, T/C (second compound 0.3 µM, first compound 0.1 µM) of 95.3% and a viability, T/C (second compound 0.3 µM, first compound 0.316 µM) of 106%. For the same compound, the viability, T/C (second compound 0.3 µM, first compound 1 µM) was 110%, the viability, T/C (second compound 0.3 µM, first compound 3.16 µM) was 93.6% and the viability, T/C (second compound 0.3 µM, first compound 10 µM) was 93.2%. For the same compound, the viability, T/C (second compound 0.949 µM, first compound 0.0316 µM) was 116%, the viability, T/C (second compound 0.949 µM, first compound 0.1 µM) was 107% and the viability, T/C (second compound 0.949 µM, first compound 0.316 µM) was 96.4%. For the same compound, the viability, T/C (second compound 0.949 µM, first compound 1 µM) was 103%, the viability, T/C (second compound 0.949 µM, first compound 3.16 µM) was 94.7% and the viability, T/C (second compound 0.949 µM, first compound 10 µM) was 93.1%. For the same compound, the viability, T/C (second compound 3 µM, first compound 0.0316 µM) was 120%, the viability, T/C (second compound 3 µM, first compound 0.1 µM) was 115% and the viability, T/C (second compound 3 µM, first compound 0.316 µM) was 114%. The viability, T/C (second compound 3 µM, first compound 1 µM) was 121%, the viability, T/C (second compound 3 µM, first compound 3.16 µM) was 109% and the viability, T/C (second compound 3 µM, first compound 10 µM) was 102%.

From PubChem BioAssay AID1963435 (Molecular Pharmacology Branch, DTP, NCI, 2024)
